26 compounds from patent publication US20150291598A1 (NOVARTIS AG, priority 2012, published 2015) can be followed below.

pEC50: −log10 of the molar value. Read-outs that look alike come from different tables or passages of the source.

For the experiment, the system named is P. falciparum (NF54 or 3D7 strain). Put plainly: Assay for P. falciparum proliferation in infected human blood cells (SYBR Green). Conditions: Plasmodium falciparum, Erythrocyte; for EC50: 72 h, read-out: EC50 (nM), inhibitory efficacy in delaying P. falciparum proliferation in infected human blood cells. In kind it is cell-based, Plasmodium falciparum. The gist of the method:
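NF54 or 3D7 parasites in O+ human erythrocytes at 2.5% hematocrit and 0.3% parasitemia final, exposed to compounds 72 h at 37 °C under 93% N2/4% CO2/3% O2.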

Where [1] appears, read: NF54 or 3D7 infected human erythrocytes, 72 hours.

For `CN(C(=O)c1cn2c(-c3ccc(F)cc3)cnc2cn1)c1ccc(Cl)nc1` [Compound 422, N-(6-chloropyridin-3-yl)-3-(4-fluorophenyl)-N-methylimidazo[1,2-a]pyrazine-6-carboxamide], the EC50 under setting [1] was > 10000 nM.

In the case of `CN(C(=O)c1cn2c(-c3ccc(C(F)(F)F)cc3)cnc2cn1)c1nc(-c2ccccc2)cs1` [Compound 423, N-methyl-N-(4-phenyl-1,3-thiazol-2-yl)-3-[4-(trifluoromethyl)phenyl]imidazo[1,2-a]pyrazine-6-carboxamide], the EC50 under setting [1] is > 9660 nM.

In the case of `Cc1n[nH]c2ccc(-c3cnc4cnc(C(=O)N(C)c5ccc(C#N)cc5)cn34)cc12` [Compound 424], the EC50 under setting [1] amounted to 291 nM.

Take `CC(=O)c1ccc(N(C)C(=O)c2cn3c(-c4ccc(C(F)(F)F)cc4)cnc3cn2)cc1` [Compound 425, N-(4-acetylphenyl)-N-methyl-3-[4-(trifluoromethyl)phenyl]imidazo[1,2-a]pyrazine-6-carboxamide]: the EC50 under setting [1] was found to be 1020 nM.

Turning to `O=C1CCCCN1Cc1cn2c(-c3ccc(C(F)(F)F)cc3)cnc2cn1` [Compound 426, 1-({3-[4-(trifluoromethyl)phenyl]imidazo[1,2-a]pyrazin-6-yl}methyl)piperidin-2-one], the EC50 under setting [1] came out at 1950 nM.

In the case of `CN(C)C(=O)c1ccc(-c2cnc3cnc(C(=O)N(C)c4ccc(C#N)cc4)cn23)cc1` [Compound 427, N-(4-cyanophenyl)-3-[4-(dimethylcarbamoyl)phenyl]-N-methylimidazo[1,2-a]pyrazine-6-carboxamide], the EC50 under setting [1] is > 9800 nM.

For `CN(C(=O)c1cn2c(-c3ccc4[nH]ccc4c3)cnc2cn1)c1ccc(C#N)cc1` [Compound 428, N-(4-cyanophenyl)-3-(1H-indol-5-yl)-N-methylimidazo[1,2-a]pyrazine-6-carboxamide], under setting [1], the EC50 was determined as 276 nM.

As for `CN(C(=O)c1cn2c(-c3ccc(OC(F)F)cc3)cnc2cn1)c1ccc(Cl)nc1` [Compound 429, N-(6-chloropyridin-3-yl)-3-[4-(difluoromethoxy)phenyl]-N-methylimidazo[1,2-a]pyrazine-6-carboxamide], the EC50 under setting [1] was 313 nM.

Regarding `COc1cc(F)ccc1N(C)C(=O)c1cn2c(-c3ccc(C(F)(F)F)cc3)cnc2cn1` [Compound 430, N-(4-fluoro-2-methoxyphenyl)-N-methyl-3-[4(trifluoromethyl)phenyl]imidazo[1,2-a]pyrazine], the EC50 under setting [1] worked out at 17 nM.

For `COc1ccc(-c2cnc3cnc(C(=O)N(C)c4ccc(F)c(F)c4)cn23)cc1` [Compound 431, N-(3,4-difluorophenyl)-3-(4-methoxyphenyl)-N-methylimidazo[1,2-a]pyrazine-6-carboxamide], under setting [1], the EC50 is 82 nM.

For the compound `Cc1ccc(-c2cnc3cnc(C(=O)N(C)c4ccc(Cl)cc4)cn23)cc1` [Compound 432, N-(4-chlorophenyl)-N-methyl-3-(4-methylphenyl)imidazo[1,2-a]pyrazine-6-carboxamide], under setting [1], the EC50 came to 79 nM.

Turning to `CN(C(=O)c1cn2c(-c3ccc(OC(F)F)cc3)cnc2cn1)c1ccc(F)cc1` [Compound 433, 3-[4-(difluoromethoxy)phenyl]-N-(4-fluorophenyl)-N-methylimidazo[1,2-a]pyrazine-6-carboxamide], the EC50 under setting [1] was found to be 31 nM.

For the compound `CN(C(=O)c1cn2c(-c3ccc(C(F)(F)F)cc3)cnc2cn1)c1ncc(Br)cn1` [Compound 434, N-(5-bromopyrimidin-2-yl)-N-methyl-3-[4-(trifluoromethyl)phenyl]imidazo[1,2-a]pyrazine-6-carboxamide], the EC50 under setting [1] is 7090 nM.

Turning to `CN(C(=O)c1cn2c(-c3ccc(C(F)(F)F)cc3)cnc2cn1)c1ccc(Cl)cn1` [Compound 435, N-(5-chloropyridin-2-yl)-N-methyl-3-[4-(trifluoromethyl)phenyl]imidazo[1,2-a]pyrazine-6-carboxamide], under setting [1], the EC50 came out at 214 nM.

Regarding `CC(C)Oc1ccc(N(C)C(=O)c2cn3c(-c4ccc(C(F)(F)F)cc4)cnc3cn2)cc1` [Compound 436, N-methyl-N-[4-(propan-2-yloxy)phenyl]-3-[4-(trifluoromethyl)phenyl]imidazo[1,2-a]pyrazine-6-carboxamide], the EC50 under setting [1] came out at 9300 nM.

For `CN(C)c1ccc(-c2cnc3cnc(CN(C)c4ccc(C#N)cc4)cn23)cc1` [Compound 437, 4-[({3-[4-(dimethylamino)phenyl]imidazo[1,2-a]pyrazin-6-yl}methyl)(methyl)amino]benzonitrile], the EC50 under setting [1] came to 176 nM.

Take `CN(C)c1cccc(-c2cnc3cnc(C(=O)N(C)c4ccc(C#N)cc4)cn23)c1` [Compound 438, N-(4-cyanophenyl)-3-[3-(dimethylamino)phenyl]-N-methylimidazo[1,2-a]pyrazine-6-carboxamide]: the EC50 under setting [1] was > 10000 nM.

`CN(C(=O)c1cn2c(-c3ccc(Cl)nc3)cnc2cn1)c1ccc(C#N)cc1` [Compound 439, 3-(6-chloropyridin-3-yl)-N-(4-cyanophenyl)-N-methylimidazo[1,2-a]pyrazine-6-carboxamide]: under setting [1], the EC50 stood at 2760 nM.

Consider `COc1cccc(N(C)C(=O)c2cn3c(-c4ccc(C(F)(F)F)cc4)cnc3cn2)c1` [Compound 440, N-(3-methoxyphenyl)-N-methyl-3-[4-(trifluoromethyl)phenyl]imidazo[1,2-a]pyrazine-6-carboxamide], for which the EC50 under setting [1] was determined as 140 nM.

Regarding `COc1ccc(-c2cnc3cnc(C(=O)N(C)c4ccc(C#N)cc4)cn23)c(C)c1` [Compound 441, N-(4-cyanophenyl)-3-(4-methoxy-2-methylphenyl)-N-methylimidazo[1,2-a]pyrazine-6-carboxamide], the EC50 under setting [1] came out at 6500 nM.

Take `O=C(Nc1nc2cccc(Cl)c2s1)c1cn2c(-c3ccc(C(F)(F)F)cc3)cnc2cn1` [Compound 442, N-(7-chloro-1,3-benzothiazol-2-yl)-3-[4-(trifluoromethyl)phenyl]imidazo[1,2-a]pyrazine-6-carboxamide]: the EC50 under setting [1] was 604 nM.

Take `O=C(Nc1ccc(C(F)(F)F)cc1)c1cn2c(-c3ccc(C(F)(F)F)cc3)cnc2cn1` [Compound 445, N,3-bis[4-(trifluoromethyl)phenyl]imidazo[1,2-a]pyrazine-6-carboxamide]: the EC50 is > 10000 nM.

Turning to `CNc1nnc(-c2ccc(-c3cnc4cnc(C(=O)N(C)c5ccc(C#N)cc5)cn34)cc2)s1` [Compound 476, N-(4-cyanophenyl)-N-methyl-3-{4-[5-(methylamino)-1,3,4-thiadiazol-2-yl]phenyl}imidazo[1,2-a]pyrazine-6-carboxamide], under setting [1], the EC50 was determined as 9 nM.

Turning to `CNc1nnc(-c2ccc(-c3cnc4cnc(C(=O)N(C)c5ccc(F)cc5)cn34)cc2)o1` [Compound 478, N-(4-fluorophenyl)-N-methyl-3-{4-[5-(methylamino)-1,3,4-oxadiazol-2-yl]phenyl}imidazo[1,2-a]pyrazine-6-carboxamide], the EC50 under setting [1] stood at 31 nM. In addition, the pEC50 (infected human red blood cells, read-out: EC50, P. falciparum Proliferation Assay) was > 7.30.

As for `CN(Cc1cn2c(-c3ccc(OC(F)F)cc3)cnc2cn1)c1ccc(C#N)cc1` [Compound 479, 4-[({3-[4-(difluoromethoxy)phenyl]imidazo[1,2-a]pyrazin-6-yl}methyl)(methyl)amino]benzonitrile], the EC50 under setting [1] came out at 35 nM.

For `CN(C(=O)c1cn2c(-c3ccc4c(cnn4C)c3)cnc2cn1)c1ccc(Cl)cc1` [Compound 480, N-(4-chlorophenyl)-N-methyl-3-(1-methyl-1H-indazol-5-yl)imidazo[1,2-a]pyrazine-6-carboxamide], the EC50 under setting [1] came out at 25 nM.
